This note sets out measurements from US10077288B2, “Hydroxystatin derivatives for the treatment of arthrosis” (Merck Patent GmbH, priority 2012, dated 2018).

*1 amine or outer side, *2 acyl side, *3 side chain or, on linkers, in order; H or OH if unused. Where a SMILES comes first, the peptide text is derived from it. [ ]: non-standard residue; d: D form. The star is where a group is joined. Ahppa(3S,4S) = O=C(C[C@H](O)[C@H](Cc1ccccc1)N[*:1])[*:2]; Isovaleryl = CC(C)CC(=O)*

Experiment [1] concerns the target T1, cathepsin D isolated from the human liver (Homo sapiens, UniProt P07339).
T1 construct: cathepsin D isolated from the human liver (Sigma-Aldrich); purchased Sigma-Aldrich; host or cells: human liver (tissue-derived, not recombinant)
Briefly: In-vitro fluorescence assay for identification of cathepsin D inhibitors. In kind it is biochemical. The settings on record: human liver cathepsin D 1.4 nM, pH 5.5; read-out: CatD assay IC50-(M). Put shortly:
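Continuous FRET assay: human liver cathepsin D (1.4 nM final) preincubated 10 min at room temperature with serially diluted compound in 100 mM sodium acetate, 1.25% DMSO, 0.25% Chaps, pH 5.5. Started with 5 μM MCA-GKPILFFRLK(Dnp)d-R-NH2; fluorescence increase (ex 340/em 450 nm) over 60 min at room temperature compared with no-compound control.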

The target of a further experiment is T2, recombinant human renin (Homo sapiens, UniProt P00797).
T2 construct: purchased Proteos, Kalamazoo, Mich
T2 sequence (P00797 67-406): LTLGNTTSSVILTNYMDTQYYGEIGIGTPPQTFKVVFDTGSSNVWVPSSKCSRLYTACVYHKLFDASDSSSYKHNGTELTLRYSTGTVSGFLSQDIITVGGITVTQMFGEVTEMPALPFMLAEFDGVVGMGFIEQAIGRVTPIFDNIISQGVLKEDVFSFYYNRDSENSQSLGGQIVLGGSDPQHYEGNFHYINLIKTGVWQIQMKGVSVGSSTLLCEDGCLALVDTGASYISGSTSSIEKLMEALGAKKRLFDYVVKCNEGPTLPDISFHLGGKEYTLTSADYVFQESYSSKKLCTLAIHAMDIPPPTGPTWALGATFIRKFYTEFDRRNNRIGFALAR
Briefly: In-vitro fluorescence assay for identification of renin-inhibitory activity. The class given is biochemical. Conditions: recombinant human renin 10 nM, FRET substrate 5 μM, pH 7.2; read-out: Renin selectivity IC50. The protocol:
EXAMPLE 8: IN-VITRO FLUORESCENCE ASSAY FOR IDENTIFICATION OF RENIN-INHIBITORY ACTIVITY
In order to identify modulators of renin activity, a continuous enzymatic test was carried out with a synthetic peptide which carries a fluorescent group Edans (=(5-(aminoethyl)aminonaphthalenesulfonate) which is quenched by energy transfer from a Dabcyl (4′-dimethylaminoazobenzene-4-carboxylate) group on the same molecule, in Greiner 384-well microtitre plates. Cleavage of the peptidic substrate by renin causes an increase in the fluorescence intensity. In order to determine the efficacy of substances, the time-dependent increase in the fluorescence intensity in the presence of the substance was compared with the time-dependent increase in fluorescence in the absence of substances. The reference substance used was renin inhibitor 2 (Z-Arg-Arg-Pro-Phe-His-Sta-Ile-His N-Boc-Lys methyl ester Z) (Sigma-Aldrich). The substrate used was renin FRET substrate I (DABCYL-g-Abu-Ile-His-Pro-Phe-His-Leu-Val-Ile-His-Thr-EDANS) (Anaspec, Fremont Calif.). The enzyme employed was recombinant human renin (Pro-teos, Kalamazoo, Mich.) in a final concentration of 10 nM. The test was carried out in 50 mM Mops buffer, 1.5% (v/v) of DMSO, 0.1% (w/v) of Igepal®, pH 7.2, 0.5% (w/v) of BSA. 2 μl of each substance solution with serially diluted substance concentration were added to in each case 4 μl of renin solution and incubated at room temperature for 15 min. The reaction was started by addition of 4 μl of substrate solution (final concentration 5 μM). After carrying out a starting-point fluorescence measurement (excitation wavelength 340 nm/emission wavelength 495 nm) using an Envision multilabel reader (Perkin Elmer), the reaction was incubated at 37° C. for 60 min. The amount of peptide fragment cleaved off during the reaction time was subsequently measured by determination of the increase in the fluorescence intensity at 495 nm (excitation wavelength 340 nm).
Result: all compounds measured have an IC50 of the renin selectivity of >30 μM (see Table 2 in Example 1).

The subject of experiment [2] is bovine explants (cartilage degradation, liberation of GAG). Briefly: Cartilage explant assay: pH-induced cartilage degradation, GAG release. The class given is cell-based. Conditions: Bos taurus, 72 h, pH 5.5, 3 days. The source says: EXAMPLE 5: CARTILAGE EXPLANT ASSAY
In order to investigate the effect of potential cathepsin D inhibitors on cartilage degradation, a pH-induced model based on bovine explants is used. The pH of the medium in which the explants are cultivated is matched here to the pathophysiological pH of an arthrotic knee. This pH is pH 5.5. In this ex vivo model, potential cathepsin D inhibitors are subsequently investigated for their action with respect to stopping of the cartilage degradation process. If the cartilage is destroyed, glycosaminoglycans (GAGs) are released into the cell culture supernatant. The amount of GAGs liberated can be determined quantitatively with the aid of DMMB (dimethylmethylene blue hydrochloride). If sulfated GAGs are detected using dimethylmethylene blue hydrochloride, the decrease in the absorption at 633 nm is utilised. […] In order to determine the concentration, a calibration line is also recorded using chondroitin sulfate.
1.) Procedure: pH-Induced Cartilage Degradation of Bovine Explants
The bovine explants are firstly prepared. The induction of the cartilage degradation is carried out in 96-multiwell plates. One explant is cultivated per well. In each case, 200 μl of DMEM (incubation medium pH 5.5) without FBS+30 μg/ml of ascorbic acid are added. Thus negative control, explants (n=4) are incubated at pH 7.4 (without FBS). This control is not included in the calculation of the data, but instead ensures that the pH change has the desired effect on the liberation of GAG. At this point, the substances to be tested are added. No pre-incubation of the explants is carried out. The explants are cultivated with the corresponding substances for 3 days in the incubator at 37° C. and 7.5% CO2.
In order to investigate the effect of cathepsin D inhibitors on the liberation of GAG (glycosaminoglycan), the substances are employed in the desired concentration and cultivated for 3 days. The compounds to be tested are tested in a first experiment in a concentration of 1 μM and 1% of DMSO. Substances which have an effect of >50% on the liberation of GAG (this corresponds to <50% of the control in the Assay Explorer) are tested in the next experiment at 100 nM and 1% of DMSO. Substances which have an effect of >50% on the liberation of GAG under these conditions (this corresponds to <50% of the control in the Assay Explorer) are tested in a concentration/effect relationship. The compounds here are investigated in the following concentrations: 30 μM, 10 μM, 3 μM, 1 μM, 0.3 μM, 0.1 μM, 0.03 μM, 0.01 μM.
The positive control used is pepstatin A with a concentration of 0.01 μM. The assay window is defined by the control (pH 5.5), defined as 0% effect, and the control pH 5.5+0.01 μM pepstatin A, defined as 100% effect. After incubation for 3 days, the cell culture supernatants are collected and stored at −20° C. or measured directly. The amount of liberated GAG is measured photometrically.
The effect (1 value) of the respective substance in % based on the positive control (pH 5.5+0.01 μM pepstatin A) and the negative control (pH 5.5) is reported for concentrations of 1 μM and 100 nM. The value represents the average of 4 replicants. In the determination of a concentration/effect relationship, an IC50 value is reported to the database (Assay Explorer).
The cell culture supernatants (200 μl) are either measured directly or stored at −20° C. […] A rapid colour reaction occurs, which is subsequently measured at 633 nm using a plate reader (for example Envision). […]

T1 sequence (P07339 65-161 limits assumed): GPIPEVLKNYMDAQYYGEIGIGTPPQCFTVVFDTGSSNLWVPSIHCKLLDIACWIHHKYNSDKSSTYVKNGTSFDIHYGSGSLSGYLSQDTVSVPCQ
T1 sequence (P07339 169-412 limits assumed): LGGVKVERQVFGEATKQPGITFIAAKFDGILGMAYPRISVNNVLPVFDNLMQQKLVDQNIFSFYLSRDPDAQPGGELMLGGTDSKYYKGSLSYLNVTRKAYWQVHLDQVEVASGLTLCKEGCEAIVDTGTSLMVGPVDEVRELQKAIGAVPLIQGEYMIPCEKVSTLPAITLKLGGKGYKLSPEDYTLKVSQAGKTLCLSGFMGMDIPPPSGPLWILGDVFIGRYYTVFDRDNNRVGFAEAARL

In general, IC50 refers to the midpoint of a concentration-inhibition curve. For the compound `CC[C@H](C)[C@H](NC(=O)C[C@H](O)[C@H](Cc1ccccc1)NC(=O)[C@@H](NC(=O)Cc1ccc(OC)cc1)C(C)C)C(=O)N[C@H](C(=O)O)C(C)C` [Compound 15, (S)-2-[(2S,3S)-2-((3S,4S)-3-hydroxy-4-{(S)-2-[2-(4-methoxyphenyl)-acetylamino]-3-methylbutyrylamino}-5-phenylpentanoylamino)-3-methylpentanoylamino]-3-methylbutyric acid], the IC50 in experiment [1] is 3.9e-08 M; at recombinant human renin, more than 30000 nM.
Take `CC[C@H](C)[C@H](NC(=O)C[C@H](O)[C@H](Cc1ccccc1)NC(=O)[C@H](NC(=O)[C@H](CC(C)C)NC(=O)CC(C)C)C(C)C)C(=O)N[C@H](C(=O)O)C(C)C` [Compound 9, (S)-2-[(2S,3S)-2-((3S,4S)-3-hydroxy-4-{(R)-3-methyl-2-[(S)-4-methyl-2-(3-methylbutyrylamino)pentanoylamino]butyrylamino}-5-phenylpentanoylamino)-3-methylpentanoylamino]-3-methylbutyric acid] (Isovaleryl-L[dV][Ahppa(3S,4S)]IV-OH): the results for the IC50 in experiment [2] and in experiment [1] were 31.2 nM and 7.51e-08 M, respectively.
On to `CC[C@H](C)[C@H](NC(=O)C[C@H](O)[C@H](Cc1ccccc1)NC(=O)[C@@H](NC(=O)CCc1ccccc1)C(C)C)C(=O)N[C@H](C(=O)OCc1ccccc1)C(C)C` [Compound 1, benzly (S)-2-((2S,3S)-2-{(3S,4S)-3-hydroxy-4-[(S)-3-methyl-2-(3-phenylpropionylamino)butyrylamino]-5-phenylpentanoylamino}-3-methylpentanoylamino)-3-methylbutyrate], for which the IC50 in experiment [1] is 7.9e-08 M; on recombinant human renin, more than 30000 nM.
Consider `CC[C@H](C)[C@H](NC(=O)C[C@H](O)[C@H](Cc1ccccc1)NC(=O)[C@@H](NC(=O)[C@H](CC(C)C)NC(=O)CC(C)C)C(C)C)C(=O)N[C@H](C(=O)O)C(C)C` [Compound 8, (S)-2-[(2S,3S)-2-((3S,4S)-3-hydroxy-4-{(S)-3-methyl-2-[(S)-4-methyl-2-(3-methylbutyrylamino)pentanoylamino]butyrylamino}-5-phenylpentanoylamino)-3-methylpentanoylamino]-3-methylbutyric acid] (Isovaleryl-LV[Ahppa(3S,4S)]IV-OH), for which the IC50 in experiment [2] is 2.76 nM; in experiment [1], 3e-09 M.
As to `CC[C@H](C)[C@H](NC(=O)C[C@H](O)[C@H](Cc1ccccc1)NC(=O)[C@@H](NC(=O)Cc1ccccc1OC)C(C)C)C(=O)N[C@H](C(=O)O)C(C)C` [Compound 28, (S)-2-[(2S,3S)-2-((3S,4S)-3-hydroxy-4-{(S)-2-[2-(2-methoxyphenyl)-acetylamino]-3-methylbutyrylamino}-5-phenylpentanoylamino)-3-methylpentanoylamino]-3-methylbutyric acid], the IC50 in experiment [1] was 1.6e-07 M; on recombinant human renin, more than 30000 nM.
For `CC[C@H](C)[C@H](NC(=O)C[C@H](O)[C@H](Cc1ccccc1)NC(=O)[C@@H](NC(=O)C(C)(C)Oc1ccc2ccccc2c1)C(C)C)C(=O)N[C@H](C(=O)OCc1ccccc1)C(C)C` [Compound 3, benzly (S)-2-[(2S,3S)-2-((3S,4S)-3-hydroxy-4-{(S)-3-methyl-2-[2-methyl-2-(naphthalen-2-yloxy)propionylamino]butyrylamino}-5-phenylpentanoylamino)-3-methylpentanoylamino]-3-methylbutyrate] the same measures were 2.3e-07 M and more than 30000 nM.
